Reference: ChEMBL document CHEMBL5034023, “Development of Multifunctional and Orally Active Cyclic Peptide Agonists of Opioid/Neuropeptide FF Receptors that Produce Potent, Long-Lasting, and Peripherally Restricted Antinociception with Diminished Side Effects” (J Med Chem, 2021)
Activity calls are given as the source filed them. The calls are words filed in the database; no cut-off is given here. Bridge positions count the residues as written; N and C are the ends. Square brackets hold non-standard residues; d marks the D form. Peptide text beside a SMILES is read from it. NMeF = CN[C@@H](Cc1ccccc1)C(=O)O; dOrn = NCCC[C@@H](N)C(=O)O

Legend:
Mus musculus [1] = test: Antinociceptive activity against Kunming mouse model of thermal-induced nociception assessed as peripheral analgesia administered subcutaneously by tail-flick test; format: functional; details: sc
Mus musculus [2] = test: Antinociceptive activity against Kunming mouse model of thermal-induced nociception assessed as maximum possible effect at 37915 nmol/kg, po measured after 20 min by tail flick test relative to control; format: functional
Mus musculus [3] = test: Antinociceptive activity against Kunming mouse model of thermal-induced nociception assessed as maximum possible effect at 37915 nmol/kg, po measured after 30 min by tail flick test relative to control; format: functional; details: 0.5 h
Mus musculus [4] = test: Antinociceptive activity against Kunming mouse model of thermal-induced nociception assessed as prolongation of tail-flick latency period at 38 umol/kg, po measured up to 240 mins by tail-flick test; format: functional, organism-based; details: dose 38.0 µmol/kg, time min <=240
Mus musculus [5] = test: Antinociceptive activity against Kunming mouse model of thermal-induced nociception assessed as duration of analgesic effect administered subcutaneously by tail-flick test; format: functional
Mus musculus [6] = test: Antinociceptive activity against Kunming mouse model of thermal-induced nociception assessed as maximum possible effect at 37915 nmol/kg, po measured after 60 min by tail flick test relative to control; format: functional; details: 1 h
[7] = Metabolic stability in mouse plasma assessed as degradation half life at 0.01 M measured up to 360 mins; format: ADME, cell-free
Mus musculus [8] = test: Antinociceptive activity in Kunming mouse assessed as analgesic tolerance administered subcutaneously once daily for 8 days by tail flick test; format: functional, organism-based; details: time 8.0 day
Mus musculus [9] = test: Potency index, ratio of test compound ED50 to DN-9 ED50 for antinociceptive activity against Kunming mouse model of thermal-induced nociception assessed as peripheral analgesia administered subcutaneously by tail-flick test; format: functional
Mus musculus [10] = test: Antinociceptive activity against Kunming mouse model of thermal-induced nociception assessed as prolongation of tail-flick latency period at 264 umol/kg, po measured up to 240 mins by tail-flick test; format: functional, organism-based; details: dose 264.0 µmol/kg, time min <=240
Mus musculus [11] = test: Antinociceptive activity against Kunming mouse model of thermal-induced nociception assessed as maximum possible effect at 264201 nmol/kg, po measured after 30 min by tail flick test relative to control; format: functional; details: 0.5 h
Mus musculus [12] = test: Antinociceptive activity against Kunming mouse model of thermal-induced nociception assessed as maximum possible effect at 264201 nmol/kg, po measured after 60 min by tail flick test relative to control; format: functional; details: 1 h
Mus musculus [13] = test: Antinociceptive activity against Kunming mouse model of thermal-induced nociception assessed as maximum possible effect at 264201 nmol/kg, po measured after 20 min by tail flick test relative to control; format: functional
Mu-type opioid receptor = Mu-type opioid receptor (Homo sapiens, UniProt P35372)
Mus musculus [14] = test: Antinociceptive activity against Kunming mouse model of thermal-induced nociception assessed as maximum possible effect at 87.9 nmol/kg, po measured after 30 min by tail flick test relative to control; format: functional; details: 0.5 h
[15] = target: T1, Delta-type opioid receptor (Homo sapiens, UniProt P41143); test: (§1) Agonist activity at DOR (unknown origin) expressed in HEK293-A cells assessed as inhibition of forskolin-induced cAMP accumulation preincubated for 30 mins in presence of 3-isobutyl-1-methylxanthine followed by forskolin and compound addition by competitive PKA binding assay; format: functional, cell-based
Mus musculus [16] = test: Antinociceptive activity against Kunming mouse model of thermal-induced nociception assessed as maximum possible effect at 87.9 nmol/kg, po measured after 60 min by tail flick test relative to control; format: functional; details: 1 h
[17] = target: T1, Delta-type opioid receptor; test: (§2) Agonist activity at DOR (unknown origin) expressed in HEK293-A cells assessed as inhibition of forskolin-induced cAMP accumulation preincubated for 30 mins in presence of 3-isobutyl-1-methylxanthine followed by forskolin and compound addition by competitive PKA binding assay relative to control; format: functional, cell-based; details: filed as agonist
[18] = target: T2, Neuropeptide FF receptor 2 (Homo sapiens, UniProt Q9Y5X5); test: as §2, with “NPFF2R” for “DOR”, “accumulation by measuring maximal efficacy” for “accumulation”; format: functional, cell-based; details: filed as agonist
[19] = target: T3, Neuropeptide FF receptor 1 (Homo sapiens, UniProt Q9GZQ6); test: Agonist activity at NPFF1R (unknown origin) expressed in HEK293-A cells assessed as inhibition of forskolin-induced cAMP accumulation preincubated for 30 mins in presence of 3-isobutyl-1-methylxanthine followed by forskolin and compound addition by competitive PKA binding assay; format: functional, cell-based
[20] = target: Kappa-type opioid receptor (Homo sapiens, UniProt P41145); format: functional, cell-based, HEK293-A
[21] = target: T2, Neuropeptide FF receptor 2; test: Agonist activity at NPFF2R (unknown origin) expressed in HEK293-A cells assessed as inhibition of forskolin-induced cAMP accumulation preincubated for 30 mins in presence of 3-isobutyl-1-methylxanthine followed by forskolin and compound addition by competitive PKA binding assay; format: functional, cell-based
Mus musculus [22] = test: Antinociceptive activity against Kunming mouse model of thermal-induced nociception assessed as maximum possible effect at 87.9 nmol/kg, po measured after 20 min by tail flick test relative to control; format: functional
[23] = target: T3, Neuropeptide FF receptor 1; test: as §2, with “NPFF1R” for “DOR”, “accumulation by measuring maximal efficacy” for “accumulation”; format: functional, cell-based; details: filed as agonist
Mus musculus [24] = test: Antinociceptive activity against Kunming mouse model of thermal-induced nociception assessed as maximum possible effect at 86.8 nmol/kg, po measured after 20 min by tail flick test relative to control; format: functional
Mus musculus [25] = test: Antinociceptive activity against Kunming mouse model of thermal-induced nociception assessed as maximum possible effect at 86.8 nmol/kg, po measured after 30 min by tail flick test relative to control; format: functional; details: 0.5 h
[26] = target: T1, Delta-type opioid receptor; test: as §1, with “Potency index, ratio of DN-9 EC50 to test compound EC50 for agonist” for “Agonist”; format: functional, cell-based
Mus musculus [27] = test: Antinociceptive activity against Kunming mouse model of thermal-induced nociception assessed as maximum possible effect at 86.8 nmol/kg, po measured after 60 min by tail flick test relative to control; format: functional; details: 1 h

T1 sequence (P41143 whole entry): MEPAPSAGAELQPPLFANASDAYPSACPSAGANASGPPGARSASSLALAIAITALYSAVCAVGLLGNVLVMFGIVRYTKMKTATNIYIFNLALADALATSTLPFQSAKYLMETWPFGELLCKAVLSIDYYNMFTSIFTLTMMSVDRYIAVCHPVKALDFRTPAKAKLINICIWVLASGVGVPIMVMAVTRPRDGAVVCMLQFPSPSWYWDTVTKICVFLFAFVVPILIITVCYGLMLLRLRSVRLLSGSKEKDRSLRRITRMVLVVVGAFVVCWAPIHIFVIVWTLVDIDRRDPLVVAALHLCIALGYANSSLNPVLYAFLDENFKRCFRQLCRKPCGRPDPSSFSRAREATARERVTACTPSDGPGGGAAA
T2 sequence (Q9Y5X5 whole entry): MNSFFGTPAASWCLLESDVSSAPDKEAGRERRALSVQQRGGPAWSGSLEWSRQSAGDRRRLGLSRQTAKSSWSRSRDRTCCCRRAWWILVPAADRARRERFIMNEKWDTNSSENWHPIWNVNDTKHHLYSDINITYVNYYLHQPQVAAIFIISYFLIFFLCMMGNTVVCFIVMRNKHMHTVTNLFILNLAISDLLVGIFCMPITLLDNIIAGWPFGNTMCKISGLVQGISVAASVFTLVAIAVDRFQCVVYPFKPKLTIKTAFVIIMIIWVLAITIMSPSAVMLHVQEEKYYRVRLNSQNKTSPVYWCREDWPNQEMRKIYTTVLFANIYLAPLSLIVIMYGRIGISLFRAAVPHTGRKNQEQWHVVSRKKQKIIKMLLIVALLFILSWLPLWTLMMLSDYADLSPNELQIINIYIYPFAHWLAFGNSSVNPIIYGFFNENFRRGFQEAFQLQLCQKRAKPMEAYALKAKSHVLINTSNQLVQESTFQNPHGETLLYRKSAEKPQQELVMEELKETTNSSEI
T3 sequence (Q9GZQ6 whole entry): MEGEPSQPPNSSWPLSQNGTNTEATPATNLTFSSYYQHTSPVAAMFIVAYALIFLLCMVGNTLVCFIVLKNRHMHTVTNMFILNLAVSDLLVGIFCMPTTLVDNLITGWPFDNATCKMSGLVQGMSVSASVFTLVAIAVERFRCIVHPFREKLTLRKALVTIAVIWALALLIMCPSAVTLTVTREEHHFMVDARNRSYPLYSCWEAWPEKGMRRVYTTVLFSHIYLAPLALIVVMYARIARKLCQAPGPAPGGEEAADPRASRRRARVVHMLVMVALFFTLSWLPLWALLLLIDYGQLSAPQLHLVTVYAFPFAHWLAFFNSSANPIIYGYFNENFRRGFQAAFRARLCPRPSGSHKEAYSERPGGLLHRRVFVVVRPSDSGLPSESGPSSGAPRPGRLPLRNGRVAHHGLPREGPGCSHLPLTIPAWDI
Kappa-type opioid receptor, sequence (P41145 whole entry): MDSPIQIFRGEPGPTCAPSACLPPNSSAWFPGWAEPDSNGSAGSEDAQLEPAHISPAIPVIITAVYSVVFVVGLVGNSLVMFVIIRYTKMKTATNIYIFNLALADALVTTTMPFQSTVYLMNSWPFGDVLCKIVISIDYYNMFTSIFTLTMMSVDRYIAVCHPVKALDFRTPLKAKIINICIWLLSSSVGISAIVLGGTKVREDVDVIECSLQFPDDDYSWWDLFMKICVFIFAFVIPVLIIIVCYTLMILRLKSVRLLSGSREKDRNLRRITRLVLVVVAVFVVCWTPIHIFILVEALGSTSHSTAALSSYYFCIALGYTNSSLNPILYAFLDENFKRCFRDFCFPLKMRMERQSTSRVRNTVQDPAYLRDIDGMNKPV
Mu-type opioid receptor, sequence (P35372 whole entry): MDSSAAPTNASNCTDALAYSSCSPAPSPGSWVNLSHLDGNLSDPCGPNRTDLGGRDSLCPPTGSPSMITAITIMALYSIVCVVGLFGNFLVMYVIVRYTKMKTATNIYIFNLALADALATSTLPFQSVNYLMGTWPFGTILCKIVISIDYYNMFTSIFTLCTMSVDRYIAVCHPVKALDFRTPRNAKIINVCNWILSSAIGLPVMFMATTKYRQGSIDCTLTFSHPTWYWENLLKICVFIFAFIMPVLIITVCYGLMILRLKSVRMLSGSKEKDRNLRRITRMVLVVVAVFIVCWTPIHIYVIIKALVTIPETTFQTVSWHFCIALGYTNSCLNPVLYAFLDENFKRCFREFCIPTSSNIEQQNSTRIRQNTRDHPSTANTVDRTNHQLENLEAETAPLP

Row | Compound | ED50 (Mus musculus [1]) [µmol/kg] | Tlast (Mus musculus [5]) [min] | half-life at 10000 µM [7] [min] | Activity (Mus musculus [8]) | Ratio ED50 (Mus musculus [9]) | EC50 (Mu-type opioid receptor) [µM] | EC50 [15] [µM] | Emax [17] [%] | Emax [18] [%] | EC50 [19] [µM] | EC50 [20] [µM] | EC50 ([21]; read-out: EC50) [µM] | Emax [23] [%] | other results
1 | C[C@@H](NC(=O)[C@@H](N)Cc1ccc(O)cc1)C(=O)NCC(=O)N(C)[C@@H](Cc1ccccc1)C(=O)NCC(=O)N1CCC[C@H]1C(=O)N[C@@H](CCC(N)=O)C(=O)N[C@@H](CCCNC(=N)N)C(=O)N[C@@H](Cc1ccccc1)C(N)=O (H-Y[dA]G[NMeF]GPQRF-NH2) | 0.216 | 90 | 21.8 | inactive | 1 | – | – | – | – | – | – | – | – | MPE (Mus musculus [2]): 75.6%; MPE (Mus musculus [3]): 63.1%; Activity (Mus musculus [4]): Active; MPE (Mus musculus [6]): 22.8%
2 | CN1CC[C@]23c4c5ccc(O)c4O[C@H]2[C@@H](O)C=C[C@H]3[C@H]1C5 [MORPHINE] | – | – | – | – | – | – | – | – | – | – | – | – | – | Activity (Mus musculus [10]): Active; MPE (Mus musculus [11]): 87.6%; MPE (Mus musculus [12]): 63%; MPE (Mus musculus [13]): 75.3%
3 | CN1C(=O)CNC(=O)[C@H](NC(=O)[C@@H](N)Cc2ccc(O)cc2)CCCNC(=O)C[C@@H](C(=O)N2CCC[C@H]2C(=O)N[C@@H](CCC(N)=O)C(=O)N[C@@H](CCCNC(=N)N)C(=O)N[C@@H](Cc2ccccc2)C(N)=O)NC(=O)[C@@H]1Cc1ccccc1 (H-Y[dOrn]G[NMeF]DPQRF-NH2; lactam 2-5) | 0.0132 | 240 | 41.1 | inactive | 16.4 | 0.168 | 0.659 | 51.9 | 52.8 | 0.439 | 0.139 | 0.133 | 72.4 | MPE (Mus musculus [14]): 96%; MPE (Mus musculus [16]): 70.7%; MPE (Mus musculus [22]): 80.8%
4 | CN1C(=O)CNC(=O)[C@H](NC(=O)[C@@H](N)Cc2ccc(O)cc2)CC(=O)NCCCC[C@@H](C(=O)N2CCC[C@H]2C(=O)N[C@@H](CCC(N)=O)C(=O)N[C@@H](CCCNC(=N)N)C(=O)N[C@@H](Cc2ccccc2)C(N)=O)NC(=O)[C@@H]1Cc1ccccc1 (H-Y[dD]G[NMeF]KPQRF-NH2; lactam 2-5) | 0.0137 | 240 | 10.8 | inactive | 15.7 | 0.0663 | 0.0742 | 56 | 71.8 | 0.222 | 0.0813 | 0.303 | 77.6 | MPE (Mus musculus [24]): 88.7%; MPE (Mus musculus [25]): 95.6%; Ratio EC50 [26]: 7; EC50 ([21]; read-out: pEC50 (converted)): 0.309 µM; MPE (Mus musculus [27]): 80.5%
